From ChEMBL document CHEMBL3585297, “New amide derivatives of Probenecid as selective inhibitors of carbonic anhydrase IX and XII: biological evaluation and molecular modelling studies” (Bioorg Med Chem, 2015) come the findings set out here.

The structures appear in SMILES notation.

The target of the first test is Carbonic anhydrase 1 (Homo sapiens, UniProt P00915). Put plainly: Inhibition of human carbonic anhydrase 1 by stopped-flow CO2 hydrase assay.
Chain of Carbonic anhydrase 1 (P00915 whole entry): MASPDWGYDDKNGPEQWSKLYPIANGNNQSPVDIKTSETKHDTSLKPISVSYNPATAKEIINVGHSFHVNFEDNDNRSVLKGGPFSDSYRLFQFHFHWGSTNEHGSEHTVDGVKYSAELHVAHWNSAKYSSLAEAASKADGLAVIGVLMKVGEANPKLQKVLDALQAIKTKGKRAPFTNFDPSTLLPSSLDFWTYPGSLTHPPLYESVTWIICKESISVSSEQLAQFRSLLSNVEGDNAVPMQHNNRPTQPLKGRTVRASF
Compound `CCCN(CCC)S(=O)(=O)c1ccc(C(=O)NCCN(CC)CC)cc1` came in with an inhibition constant (Ki) of more than 10 µM.

Consider `CCCN(CCC)S(=O)(=O)c1ccc(C(=O)NCC)cc1`, for which the inhibition constant Ki is more than 10 µM.

With `CCCN(CCC)S(=O)(=O)c1ccc(C(=O)NCCN2CCCCC2)cc1`, the Ki is more than 10 µM.

The compound `CCCN(CCC)S(=O)(=O)c1ccc(C(=O)Nc2ccc([N+](=O)[O-])cc2)cc1` yielded a Ki of more than 10 µM.

`CCCN(CCC)S(=O)(=O)c1ccc(C(=O)Nc2ccncc2)cc1` had an inhibition constant Ki of more than 10 µM.

`CCCN(CCC)S(=O)(=O)c1ccc(C(=O)Nc2ccccc2Cl)cc1`: the Ki was more than 10 µM.

Regarding `CCCN(CCC)S(=O)(=O)c1ccc(C(=O)NC2CCCC(C)C2)cc1` (centres undefined), the inhibitory constant (Ki) is more than 10 µM.

The compound `CCCN(CCC)S(=O)(=O)c1ccc(C(=O)Nc2ccccc2C)cc1` showed an inhibition constant Ki of more than 10 µM.

As for `CCCN(CCC)S(=O)(=O)c1ccc(C(=O)NCc2ccccc2)cc1`, the Ki was more than 10 µM.

`CCCN(CCC)S(=O)(=O)c1ccc(C(=O)NCCCN2CCOCC2)cc1`: the Ki was more than 10 µM.

`CCCN(CCC)S(=O)(=O)c1ccc(C(=O)NC2CCC(C)CC2)cc1` (centres undefined) showed a Ki of more than 10 µM.

The next test addresses Carbonic anhydrase 9 (Homo sapiens, UniProt Q16790). Put plainly: Inhibition of human carbonic anhydrase 9 by stopped-flow CO2 hydrase assay.
For `CCCN(CCC)S(=O)(=O)c1ccc(C(=O)NCCN(CC)CC)cc1`, the affinity corresponds to a Ki of 0.11 µM.

Compound `CCCN(CCC)S(=O)(=O)c1ccc(C(=O)NCCN2CCCCC2)cc1` displayed a Ki of 1.26 µM.

In turn, `CCCN(CCC)S(=O)(=O)c1ccc(C(=O)Nc2ccc([N+](=O)[O-])cc2)cc1` came in with an inhibition constant (Ki) of 0.246 µM.

The compound `CCCN(CCC)S(=O)(=O)c1ccc(C(=O)Nc2ccncc2)cc1` displayed an inhibition constant Ki of 2.04 µM.

`CCCN(CCC)S(=O)(=O)c1ccc(C(=O)Nc2ccccc2Cl)cc1`: the Ki amounted to 0.0236 µM.

`CCCN(CCC)S(=O)(=O)c1ccc(C(=O)NC2CCCC(C)C2)cc1` (centres undefined): affinity was put at a Ki of 0.188 µM.

The compound `CCCN(CCC)S(=O)(=O)c1ccc(C(=O)Nc2ccccc2C)cc1` registered an inhibitory constant (Ki) of 0.0613 µM.

Take `CCCN(CCC)S(=O)(=O)c1ccc(C(=O)NCc2ccccc2)cc1`: the affinity corresponds to a Ki of 0.0206 µM.

`CCCN(CCC)S(=O)(=O)c1ccc(C(=O)NCCCN2CCOCC2)cc1` came in with a Ki of 0.213 µM.

Turning to `CCCN(CCC)S(=O)(=O)c1ccc(C(=O)NC2CCC(C)CC2)cc1` (centres undefined), the inhibition constant Ki came to 2.02 µM.

Turning to `CCCN(CCC)S(=O)(=O)c1ccc(C(=O)Nc2ccccn2)cc1`, affinity was put at a Ki of 0.199 µM.

Another test concerns the target Carbonic anhydrase 2 (Homo sapiens, UniProt P00918). Put plainly: Inhibition of human carbonic anhydrase 2 by stopped-flow CO2 hydrase assay.
Take `CCCN(CCC)S(=O)(=O)c1ccc(C(=O)NCCN(CC)CC)cc1`: the inhibition constant (Ki) is more than 10 µM.

As to `CCCN(CCC)S(=O)(=O)c1ccc(C(=O)NCC)cc1`, the Ki is more than 10 µM.

`CCCN(CCC)S(=O)(=O)c1ccc(C(=O)NCCN2CCCCC2)cc1` registered a Ki of more than 10 µM.

`CCCN(CCC)S(=O)(=O)c1ccc(C(=O)Nc2ccc([N+](=O)[O-])cc2)cc1` came in with an inhibition constant (Ki) of more than 10 µM.

Consider `CCCN(CCC)S(=O)(=O)c1ccc(C(=O)Nc2ccncc2)cc1`, for which the inhibition constant Ki is more than 10 µM.

In turn, `CCCN(CCC)S(=O)(=O)c1ccc(C(=O)Nc2ccccc2Cl)cc1` gave an inhibition constant Ki of more than 10 µM.

For `CCCN(CCC)S(=O)(=O)c1ccc(C(=O)NC2CCCC(C)C2)cc1` (centres undefined), the Ki is more than 10 µM.

In turn, `CCCN(CCC)S(=O)(=O)c1ccc(C(=O)Nc2ccccc2C)cc1` registered a Ki of more than 10 µM.

For `CCCN(CCC)S(=O)(=O)c1ccc(C(=O)NCc2ccccc2)cc1`, the Ki is more than 10 µM.

In the case of `CCCN(CCC)S(=O)(=O)c1ccc(C(=O)NCCCN2CCOCC2)cc1`, the Ki was more than 10 µM.

Take `CCCN(CCC)S(=O)(=O)c1ccc(C(=O)NC2CCC(C)CC2)cc1` (centres undefined): the inhibition constant (Ki) was more than 10 µM.

In the case of `CCCN(CCC)S(=O)(=O)c1ccc(C(=O)Nc2ccccn2)cc1`, the Ki is more than 10 µM.

In general, Ki refers to the dissociation constant of the complex between target and ligand, obtained from inhibition or displacement.
